Data as given in US6596764B1, “Method of preparing diacetyl rhein” (Laboratoire Medidom S.A., priority 1991, dated 2003).
One block for each molecule: values may come before it.

Columns and labels:
[1] = system: arthrosis in rabbits induced by the intraarticular administration of vitamin A; assay: Vitamin A arthrosis in rabbits (chronic inflammation model, oral administration); format: in vivo, rabbit (white New Zealanders); settings: for clinical signs of arthrosis (disturbances of movement, dragging of the rear legs): 7 rabbits
Procedure: The effectiveness of diacetylrhein was determined in chronic inflammation models after oral administration.
The following experimental models were used: cotton pellet granuloma in rats and arthrosis in rabbits induced by the intraarticular administration of vitamin A.
An arthrosis-like joint change was initiated in two groups each of 10 rabbits (white New Zealanders) by means of three intraarticular injections of 30,000 IU of vitamin A over the course of 9 days. 56 days later, 10 animals were treated with 3 mg of diacetylrhein/kg/day for 8 weeks.
Furthermore, the curative action of diacetylrhein was compared with that of acetylsalicylic acid on each of 7 rabbits which, after 6 days pre-treatment with three times 10,000 IU vitamin A and a 26 day treatment-free interval for 8 weeks, received either 5 mg of diacetylrhein/kg/day (experimental group), 15 mg of acetylsalicylic acid/kg/day (positive control group) or remained untreated (negative control group). […] In the negative control group, during the following 8 weeks, the clinical signs of a manifest arthrosis increased.

cotton pellet granuloma = assay: Cotton pellet granuloma in rats (chronic inflammation model, oral administration); format: in vivo, rat
Procedure: The effectiveness of diacetylrhein was determined in chronic inflammation models after oral administration. The following experimental models were used: cotton pellet granuloma in rats and arthrosis in rabbits induced by the intraarticular administration of vitamin A. a) Cotton pellet granuloma in rats. Young sexually mature rats (n=10) were given 25, 50 or 100 mg diacetylrhein/kg or 5 mg indomethacin/kg or 100 mg acetylsalicylic acid/kg daily for 5 days. A control group only treated with water was also used. Implantation of the pellets took place on the first day of treatment.

[2] = system: coxarthrosis and gonarthrosis; assay: Clinical double-blind study against naproxen with subsequent placebo after-treatment; format: in vivo, human; settings: for improvement of all test parameters (pain and movement symptoms score, function limitation, compatibility) vs initial values: patients, 60 days
Procedure: 1. The action of diacetylrhein was investigated in coxarthrosis and gonarthrosis in 95 (49/46) patients in a double-blind study against naproxen and subsequent placebo after-treatment. The dosage administered was 50 mg of diacetylrhein twice daily or 750 mg of naproxen daily. The period of treatment was 60 days after a 7 day wash-out phase. The subsequent placebo treatment extended over 60 days. Test parameters were the pain and movement symptoms according to a score scale, function limitation and compatibility.

gastric mucosa = assay: Gastric mucosa changes in the rat; format: in vivo
localised arthrosis = assay: Clinical single blind crossover study against naproxen; format: in vivo, human; settings: 20 patients
Procedure: 3. The action of diacetylrhein in the case of localised arthrosis in 20 patients was investigated in a single blind crossover study against naproxen. The patients were divided up into two groups: in the first group, initially 50 mg of diacetylrhein was administered twice daily for 20 days. Subsequently, there followed a three day wash-out phase and a further treatment with 250 mg of naproxen twice daily for a further 20 days. In the second group, the reverse sequence was used. The period of treatment was, in all, 43 days. The test parameters of pain, compression pain, passive movement pain, function limitation and swelling were determined according to a score system.

in vivo = settings: rat, mouse, cat
[3] = system: osteoarthrosis of the spine and of the knee; assay: Clinical open running study with control (physiotherapy); format: in vivo, human
Procedure: 2. In an open running study with control, there was investigated the action of diacetylrhein against osteoarthrosis of the spine and of the knee in 70 patients (35/35). The dosage administered was 100 mg of diacetylrhein per day. The period of treatment was 60 days and the period of observation was 75 days. The test parameters were pain and movement limitation. The parameters were evaluated according to a score system. The control group comprised 35 patients in the case of which exclusively physiotherapeutic measures were carried out. Physiotherapy was also carried out in the diacetylrhein treatment group.

[4] = system: mucosal lesions in patients with osteoarthrosis; assay: Clinical randomised double blind double dummy compatibility study (oesophagogastroduodenoscopic findings); format: in vivo, human; settings: after 4 weeks
Procedure: 4. The action of diacetylrhein was investigated in 23 patients (12/11) with osteoarthrosis in a randomised double blind study using the “double dummy technique” (compatibility study). The dosage administered was 50 mg of diacetylrhein twice daily and 250 mg of naproxen three times daily. The period of treatment was 4 weeks. The test parameters were then oesophagogastroduodenoscopic findings before and after the therapy. Only patients with normal mucosal findings or with slight mucosal lesions (grade 1) were used in the study.

[5] = crossover study, 43 days in all
[6] = 50 mg of diacetylrhein twice daily
[7] = 250 mg of naproxen three times daily

Compound: CC(=O)Oc1ccccc1C(=O)O [acetylsalicylic acid, reference compound]
clinical signs of arthrosis (disturbances of movement, dragging of the rear legs) ([1]; 15 mg of acetylsalicylic acid/kg/day for 8 weeks (positive control group)): improved significantly

Compound: CC(=O)Oc1cccc2c1C(=O)c1c(OC(C)=O)cc(C(=O)O)cc1C2=O [diacetylrhein]
Fresh and dry weights of the granuloma (cotton pellet granuloma; rats (n=10), oral, 25, 50 or 100 mg diacetylrhein/kg daily for 5 days, in comparison with water-treated control group): significant and clearly dosage-dependent reduction
action on granuloma weights compared with reference drugs (cotton pellet granuloma; rats, oral, 100 mg diacetylrhein/kg daily for 5 days vs 5 mg indomethacin/kg or 100 mg acetylsalicylic acid/kg): corresponded to about the action of 5 mg indomethacin or of 100 mg acetylsalicylic acid
weights of the thymus and adrenals (cotton pellet granuloma; rats, oral, daily treatment for 5 days): did not change
night pain and pressure pain after discontinuation, vs naproxen/placebo collective ([2]; 30 days after discontinuation of diacetylrhein, 5% level): difference was also verified
spontaneous pain and active and passive movement pain after discontinuation, vs naproxen/placebo collective ([2]; days 90 and 120, under subsequent placebo, P<0.01): statistically significant superiority
improvement of all test parameters (pain and movement symptoms score, function limitation, compatibility) vs initial values ([2]; 50 mg of diacetylrhein twice daily, P<0.01): statistically significant rate of improvement
erosions of the gastric mucosa (gastric mucosa; single administration of 400 mg/kg): did not give rise to any erosions
gastric mucosal damage (gastric mucosa; twice daily 100 mg/kg over the course of 3 days): did not initiate any mucosal damage
clinical laboratory parameters (localised arthrosis; [5]): no changes
side effects (localised arthrosis; [5]): No noteworthy side effects
pain, compression pain, passive movement pain, function limitation and swelling (score system), vs naproxen (localised arthrosis; crossover, 50 mg diacetylrhein twice daily 20 days vs 250 mg naproxen twice daily 20 days): superiority
LD50 (in vivo): 119 to 339 mg/kg
LD50 (in vivo; po): 1900 to 7900 mg/kg
pain and movement limitation (score system), treatment group vs control group ([3]; 35/35 patients, 100 mg per day plus physiotherapy for 60 days vs physiotherapy only): statistically significant superiority
effect after discontinuation of the treatment ([3]; period of observation 75 days, treatment 60 days, 100 mg per day): continuing therapeutic effect (hang-over effect)
clinical signs of arthrosis (disturbances of movement, dragging of the rear legs) ([1]; 5 mg of diacetylrhein/kg/day for 8 weeks after 3 x 10,000 IU vitamin A and 26 day treatment-free interval): improved significantly
macroscopically and microscopically recognisable joint changes ([1]; rabbits, 3 mg/kg/day for 8 weeks starting 56 days after 3 x 30,000 IU vitamin A, in comparison with control group): significantly reduced
number of cases with mucosal lesions of grade 2 (endoscopic findings) [4, 6]: one
share of patients with mucosal lesions of grade 2 (endoscopic findings) [4, 6]: 10%

number of patients with mucosal lesions of grade 2, 3 and 4 (endoscopic findings) [4, 7]: 5 patients
share of patients with mucosal lesions of grade 2, 3 and 4 (endoscopic findings) [4, 7]: 50%
Compound: COc1ccc2cc([C@H](C)C(=O)O)ccc2c1 [naproxen, reference compound]
improvement of all test parameters (pain and movement symptoms score, function limitation, compatibility) vs initial values ([2]; 750 mg of naproxen daily, P<0.05): statistically significant rate of improvement
